According to publication PMC5992482 (Molecular Therapy. Nucleic Acids, 2018):

Target: T1, Nicotinamide N-methyltransferase (NNMT) (Homo sapiens, UniProt P40261)
T1 sequence (P40261 1-264): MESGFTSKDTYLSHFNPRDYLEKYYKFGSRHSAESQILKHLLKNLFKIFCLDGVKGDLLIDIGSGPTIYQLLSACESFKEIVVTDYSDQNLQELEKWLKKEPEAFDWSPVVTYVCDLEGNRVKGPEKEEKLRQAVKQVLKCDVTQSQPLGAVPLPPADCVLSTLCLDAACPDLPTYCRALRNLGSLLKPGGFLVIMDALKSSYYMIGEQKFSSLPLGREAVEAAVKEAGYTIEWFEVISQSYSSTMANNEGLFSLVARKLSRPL
Test: in vitro enzyme activity assay with purified NNMT
Type: biochemical

C=C(C)[C@@]12O[C@@]3(/C=C/C=C/CCCCC)O[C@@H]1[C@@H]1[C@@H]4O[C@]4(CO)[C@@H](O)[C@]4(O)C(=O)C(C)=C[C@H]4[C@@]1(O3)[C@H](C)[C@H]2OC(C)=O [YD, yuanhuadine]
IC50: 0.4 µM
